According to article PMC9848270, “Synthesis and biological assessment of indole derivatives containing penta-heterocycles scaffold as novel anticancer agents towards A549 and K562 cells” (Journal of Enzyme Inhibition and Medicinal Chemistry, 2023):
Where two headings read alike, the source gives them in different places.

Key:
[1] = system: human chronic myeloid leukaemia cells (K562); experiment: MTT antiproliferative assay, K562; type: cell-based; details: for inhibition at 10 µM: K562, 10 μM, read-out: Inhibition rate, K562
Experimental: (§1) A549, PC-3, HepG2 and K562 cells were purchased from the Kunming cell bank of the Chinese academy of sciences. All cell lines were cultured in DMEM or RPMI 1640 complete medium. Logarithmic growth cells were cultured in 96-well plates at a concentration of 10^4 cells per well and pre-cultured for 24 h before adding test compounds. The MTT test with 5-Fluorouracil and Gefitinib as reference compounds were used to evaluate antiproliferative activity of target compounds in four human cancer line cells. For the estimation of the inhibition concentration (IC50), the Graph Pad Prism (GraphPad Software, San Diego, CA) was used.

[2] = system: human liver cancer cells (HepG2); experiment: MTT antiproliferative assay, HepG2; type: cell-based; details: for inhibition at 10 µM: read-out: Inhibition rate, HepG2; for IC50: MTT assay, 48 h, read-out: In vitro cytotoxicity IC50, HepG2
Experimental: as §1

[3] = system: human prostate cancer cells (PC-3); experiment: MTT antiproliferative assay, PC-3; type: cell-based; details: Homo sapiens; for IC50: 48 h, MTT assay, read-out: In vitro cytotoxicity IC50, PC-3; for inhibition at 10 µM: read-out: Inhibition rate, PC-3
Experimental: as §1

[4] = MTT cytotoxicity, normal cell line HEK293; type: cell-based, human; details: human; for IC50 at 48 h: HEK293 cells (normal cell line), MTT assay, normal cell line, CC50, read-out: In vitro cytotoxicity IC50, HEK293
[5] = system: normal cell line (HEK293); experiment: MTT cytotoxicity, normal cell line HEK293; type: cell-based, human; details: Homo sapiens, HEK293; 10 μM; read-out: Inhibition rate, HEK293
[6] = system: human non-small cell lung cancer cells (A549); experiment: MTT antiproliferative assay, A549; type: cell-based; details: for inhibition at 10 µM: A549, 10 μM, read-out: Inhibition rate, A549
Experimental: as §1

[7] = K562, 48 h, MTT assay, 48 h, read-out: In vitro cytotoxicity IC50, K562
[8] = A549, 48 h, MTT assay, 48 h, read-out: In vitro cytotoxicity IC50, A549

Structure (SMILES) | inhibition at 10 µM [1] [%] | IC50 [1, 7] [µM] | inhibition at 10 µM [2] [%] | IC50 [2] [µM] | IC50 [3] [µM] | inhibition at 10 µM [3] [%] | IC50 at 48 h [4] [µM] | inhibition at 10 µM [5] [%] | inhibition at 10 µM [6] [%] | IC50 [6, 8] [µM] | melting point [°C] | IC50 ([1]; K562, Table 2, unit inferred, repeats Table 1, read-out: K562 (IC50, Table 2)) [µM] | CC50 ([4]; HEK293 cells, Table 2, unit inferred, repeats Table 1) [µM] | IC50 ([6]; A549, Table 2, unit inferred, repeats Table 1, read-out: A549 (IC50, Table 2)) [µM]
O=C(CSc1nnc(-c2cc(Cl)cc(Cl)c2)s1)Nc1cc(-c2c[nH]c3ccccc23)n[nH]1 [Compound 10a, N-(3-(1H-indol-3-yl)-1H-pyrazol-5-yl)-2-((5-(3,5-dichlorophenyl)-1,3,4-thiadiazol-2-yl)thio)acetamide] | 96 ± 2.31 | 0.0527 ± 0.02 | 76 ± 3.39 | 4.45 ± 0.42 | 0.141 ± 0.01 | 95.7 ± 0.624 | 1.33 ± 0.07 | 87.6 ± 2.19 | 85.6 ± 3.54 | 0.433 ± 0.1 |  |  |  | 
O=C(CSc1nnc(Cc2ccc(Cl)cc2)s1)Nc1cc(-c2c[nH]c3ccccc23)n[nH]1 [Compound 10d, N-(3-(1H-indol-3-yl)-1H-pyrazol-5-yl)-2-((5-(4-chlorobenzyl)-1,3,4-thiadiazol-2-yl)thio)acetamide] | 96.1 ± 1.29 | 0.184 ± 0.02 | 93.7 ± 1.88 | 0.732 ± 0.15 | 1.6 ± 0.44 | 82.6 ± 4.95 | 0.74 ± 1.25 | 84.7 ± 2.75 | 90.7 ± 6.19 | 1.28 ± 0.33 | 151 to 153 |  |  | 
COc1ccc(-c2nnc(SCC(=O)Nc3cc(-c4c[nH]c5ccccc45)n[nH]3)s2)cc1 [Compound 10e, N-(3-(1H-indol-3-yl)-1H-pyrazol-5-yl)-2-((5-(4-methoxyphenyl)-1,3,4-thiadiazol-2-yl)thio)acetamide] | 98.7 ± 1.05 | 0.193 ± 0.09 | 95.5 ± 0.354 | 0.801 ± 0.09 | 0.852 ± 0.43 | 92.5 ± 0.391 | 0.89 ± 2.32 | 85.5 ± 1.26 | 92.2 ± 1.01 | 0.834 ± 0.09 |  |  |  | 
O=C(CSc1nnc(-c2ccc(Cl)cc2)s1)Nc1cc(-c2c[nH]c3ccccc23)n[nH]1 [Compound 10f, N-(3-(1H-indol-3-yl)-1H-pyrazol-5-yl)-2-((5-(4-chlorophenyl)-1,3,4-thiadiazol-2-yl)thio)acetamide] | 95.8 ± 3.98 | 0.991 ± 0.52 | 90.3 ± 2.77 | 3.34 ± 0.6 | 8.86 ± 7.04 | 58.7 ± 28.6 | 2.56 ± 0.9 | 60.9 ± 6.65 | 85.2 ± 3.63 | 4.33 ± 0.3 |  |  |  | 
O=C(CSc1nnc(-c2cccnc2)s1)Nc1cc(-c2c[nH]c3ccccc23)n[nH]1 [Compound 10h, N-(3-(1H-indol-3-yl)-1H-pyrazol-5-yl)-2-((5-(pyridine-3-yl)-1,3,4-thiadiazol-2-yl)thio)acetamide] | 64.3 ± 8.28 | 6.93 ± 1.63 | 63.2 ± 5.32 | 5.58 ± 2.69 | 16.7 ± 4.86 | 28.9 ± 2.71 | 21.9 ± 1.31 | 18.7 ± 8.52 | 43.5 ± 1.7 | 7.96 ± 1.39 | 233 to 235 |  |  | 
O=C(CSc1nnc(-c2ccccn2)s1)Nc1cc(-c2c[nH]c3ccccc23)n[nH]1 [Compound 10i, N-(3-(1H-indol-3-yl)-1H-pyrazol-5-yl)-2-((5-(pyridine-2-yl)-1,3,4-thiadiazol-2-yl)thio)acetamide] | 40.5 ± 6.54 | 12.5 ± 2.46 | 51.9 ± 5.57 | 8.37 ± 2.29 | 24.1 ± 5.07 | 30.5 ± 9.1 | 26.3 ± 1.63 | 46.5 ± 7.5 | 35.7 ± 2.75 | 12 ± 1.46 | 226 to 228 |  |  | 
Nn1c(SCC(=O)Nc2cc(-c3c[nH]c4ccccc34)n[nH]2)nnc1-c1cc(Cl)cc(Cl)c1 [Compound 11a, N-(3-(1H-indol-3-yl)-1H-pyrazol-5-yl)-2-((4-amino-5–(3,5-dichlorophenyl)-4H-1,2,4-triazol-3-yl)thio)acetamide] | 95.6 ± 1.68 | 3.64 ± 0.08 | 19.3 ± 4.13 | 40.3 ± 7.83 | 7.66 ± 1.5 | 79 ± 3.97 | 16.8 ± 5.56 | 58.5 ± 2.72 | 32.9 ± 3.84 | 27.3 ± 3.47 | 258 to 260 |  |  | 
COc1cc(-c2nnc(SCC(=O)Nc3cc(-c4c[nH]c5ccccc45)n[nH]3)n2N)cc(OC)c1OC [Compound 11b, N-(3-(1H-indol-3-yl)-1H-pyrazol-5-yl)-2-((4-amino-5–(3,4,5-trimethoxyphenyl)-4H-1,2,4-triazol-3-yl)thio)acetamide] | 96.4 ± 1.16 | 3.09 ± 0.41 | 72.7 ± 4.94 | 10.6 ± 1.42 | 5.73 ± 1.69 | 80.3 ± 3.56 | 20.2 ± 4.08 | 72.1 ± 1.62 | 32.6 ± 3.42 | 29.8 ± 4.05 | 259 to 261 |  |  | 
Nn1c(SCC(=O)Nc2cc(-c3c[nH]c4ccccc34)n[nH]2)nnc1-c1ccccc1Br [Compound 11c, N-(3-(1H-indol-3-yl)-1H-pyrazol-5-yl)-2-((4-amino-5–(2-bromophenyl)-4H-1,2,4-triazol-3-yl)thio)acetamide] | 14.9 ± 1.32 | 43.4 ± 1.96 | 10.4 ± 1.73 | 74.7 ± 13.4 | 60.8 ± 4.73 | 12.3 ± 2.04 | 75.4 ± 2.35 | 1.73 ± 2.31 | 10.5 ± 0.521 | 67.7 ± 1.35 | 194 to 195 |  |  | 
Nn1c(Cc2ccc(Cl)cc2)nnc1SCC(=O)Nc1cc(-c2c[nH]c3ccccc23)n[nH]1 [Compound 11d, N-(3-(1H-indol-3-yl)-1H-pyrazol-5-yl)-2-((4-amino-5–(4-chlorobenzyl)-4H-1,2,4-triazol-3-yl)thio)acetamide] | 95.4 ± 0.809 | 3.51 ± 1.05 | 16.3 ± 2.1 | 49.6 ± 10.2 | 8.42 ± 0.56 | 56.2 ± 9.24 | 11.6 ± 0.87 | 63.4 ± 7.49 | 87.4 ± 12.5 | 4.79 ± 0.21 | 240 to 241 |  |  | 
COc1ccc(-c2nnc(SCC(=O)Nc3cc(-c4c[nH]c5ccccc45)n[nH]3)n2N)cc1 [Compound 11e, N-(3-(1H-indol-3-yl)-1H-pyrazol-5-yl)-2-((4-amino-5–(4-methoxyphenyl)-4H-1,2,4-triazol-3-yl)thio)acetamide] | 98.7 ± 0.418 | 4.32 ± 0.53 | 63.5 ± 20 | 10.4 ± 2.86 | 11.7 ± 1.64 | 54.7 ± 14.8 | 4.94 ± 0.75 | 67.3 ± 1.39 | 47.9 ± 9.44 | 21.4 ± 4.46 | 238 to 240 |  |  | 
Nn1c(SCC(=O)Nc2cc(-c3c[nH]c4ccccc34)n[nH]2)nnc1-c1ccc(Cl)cc1 [Compound 11f, N-(3-(1H-indol-3-yl)-1H-pyrazol-5-yl)-2-((4-amino-5–(4-chlorophenyl)-4H-1,2,4-triazol-3-yl)thio)acetamide] | 25 ± 3.24 | 32.3 ± 4.05 | 46.9 ± 6.62 | 9.04 ± 0.93 | 19.1 ± 8.43 | 28.9 ± 3.01 | 18.1 ± 3.14 | 40.1 ± 2.19 | 32.8 ± 4.22 | 11.8 ± 3 | 214 to 215 |  |  | 
Nn1c(SCC(=O)Nc2cc(-c3c[nH]c4ccccc34)n[nH]2)nnc1-c1ccccc1F [Compound 11g, N-(3-(1H-indol-3-yl)-1H-pyrazol-5-yl)-2-((4-amino-5–(2-fluorophenyl)-4H-1,2,4-triazol-3-yl)thio)acetamide] | 98.5 ± 0.653 | 3.78 ± 0.54 | 74.9 ± 25.5 | 9.65 ± 5.87 | 6.52 ± 1.85 | 72.2 ± 13.2 | 5.05 ± 1.17 | 65.4 ± 6.38 | 67.5 ± 1.65 | 10.1 ± 2.37 | 226 to 227 |  |  | 
Nn1c(SCC(=O)Nc2cc(-c3c[nH]c4ccccc34)n[nH]2)nnc1-c1cccnc1 [Compound 11h, N-(3-(1H-indol-3-yl)-1H-pyrazol-5-yl)-2-((4-amino-5-(pyridine-3-yl)-4H-1,2,4-triazol-3-yl)thio)acetamide] | 98.6 ± 0.417 | 0.06 | 93.6 ± 0.215 | 1.23 ± 0.06 | 3.16 ± 0.23 | 65.1 ± 0.595 | 1.79 ± 0.63 | 77.8 ± 4.16 | 97.8 ± 0.354 | 1.15 ± 0.26 | 195 to 197 | 0.0639 ± 0.02 | 1.79 ± 0.63 | 1.15 ± 0.26
Nn1c(SCC(=O)Nc2cc(-c3c[nH]c4ccccc34)n[nH]2)nnc1-c1ccncc1 [Compound 11o, N-(3-(1H-indol-3-yl)-1H-pyrazol-5-yl)-2-((4-amino-5-(pyridin-4-yl)-4H-1,2,4-triazol-3-yl)thio)acetamide] |  | 66 ± 3.48 |  | 33.4 ± 7.97 | 38.3 ± 1.75 |  | 21.8 ± 1.76 |  |  | 30.3 ± 7 | 170 to 172 |  |  | 
